Consider nine compounds from patent US20160038519A1, “ADMINISTRATION OF KARENITECIN FOR THE TREATMENT OF ADVANCED OVARIAN CANCER, INCLUDING CHEMOTHERAPY-RESISTANT AND/OR THE MUCINOUS ADENOCARCINOMA SUB-TYPES” (BioNumerik Pharmaceuticals, Inc., priority 2014, published 2016).

Converted amounts (≈) assume the structure as drawn. Where two headings read alike, the source gives them in different places.

One data set relates to MDR-expressing sublines. The settings on record: cited from earlier work; for Change in sensitivity typically described for classic MDR substrates: same experiments; for Resistance of MDR-expressing sublines relative to parental wild-type cells: comparison studies.
The subject of another data set is JHOM2B Cell Line. The experiment in a line: SRB cytotoxicity assay, JHOM2B. Format: cell-based, human. The procedure:
(§1) In vitro studies were conducted in human mucinous ovarian cancer cell lines including JHOM2B, OMC3, and COV644. In one series of experiments, the dose response curves for BNP1350 (also known as Karenitecin), SN-38 (Irinotecan), and Topotecan were obtained and IC50 values were determined. In a second series of experiments, the effect of BNP7787 (2,2′-dithio-bis-ethane sulfonate; Tavocept) on BNP1350-induced cytotoxicity at selected BNP1350 concentrations was examined.
(§2) The JHOM2B and OMC3 cell lines were purchased from Riken Cell Bank (Japan). The COV644 cell line was purchased from SigmaAldrich. Cells were maintained as monolayered cultures in T-75 flasks and then seeded to microtiter plate wells for experiments. Population doubling-times for these three cell lines were long (i.e., exceeding 40 hours, and for some of the cell lines approaching 96 hours); therefore, the Applicants conducted initial pilot experiments and determined optimal seeding density to obtain A570 values in untreated controls that would fall within the linear range of the SRB assay after seven (7) total days of cell growth. JHOM2B cells were cultured in DMEM:F12 (1:1)+0.1 mM non-essential amino acids (NEAA)+10% FBS and were seeded at 6,000 cells per well. OMC3 cells were cultured in HamF12+10% FBS and were seeded at 8,000 cells per well. COV644 cells were cultured in DMEM+2 mM glutamine+10% FBS and were seeded at 6,000 cells per well.
(§3) The cells were manipulated in a Microzone laminar flow hood traditionally used for maintaining aseptic environments around automated instrumentation such as microplate robots, and the like. Cells were grown and maintained at 37° C. in a humidified atmosphere containing 5% CO2 in a water jacketed cell culture incubator (Forma Scientific). Cells were counted using a ViCell counter (Beckman-Coulter). An automated plate washer/stacker (ELx405/BioStak from BioTek Instruments) and a microplate reader (SpectraMax Plus from Molecular Devices) were used for conducting the SRB assay and determining A570 values for wells in the plates and the percentage of control values. Prior to SRB assays, cell viability was monitored by evaluation of microtiter plate wells. Dead cells detach and float while living cells remain attached to the bottom of the cell well.
(§4) SN-38 (Irinotecan; Sigma H0165, lot MKBQ4981) and Topotecan (Sigma T2705, lot 052M4728V) were purchased from SigmaAldrich. BNP1350 (lot KN-C192-135) and BNP7787 (lot 205001) were synthesized at BioNumerik Pharmaceuticals, Inc. (San Antonio, Tex.). BNP1350, SN38, and Topotecan were prepared as 2.5, 2.5, and 25 mM stocks in DMSO (ATCC, cell culture grade).
(§5) The sulforhodamine B (SRB) cytotoxicity assay was used to assess cell survival. Briefly, after the medium was decanted from individual plate wells, trichloroacetic acid (100 μL of 10.0 percent solution) was added to each well, and the plates were incubated at 4° C. for 1 hour. The plates were washed five times with water using an automated microplate washer (Model ELx405, Bio-Tek Instruments), SRB solution (100 μL of 0.4% SRB dissolved in 1.0 percent acetic acid) was added, and plates remained at room temperature for 15 minutes. The plates were then washed five times using acetic acid (1.0 percent), air dried, and bound dye was solubilized in Tris base (150 μL, 10 mM). Plates were agitated (gently) for 5 minutes and the absorbance values of the SRB dye-protein adduct at 570 nanometers (A570) were determined using an automated microtiter plate reader (SpectraMax Plus, Molecular Devices). IC50 values were extrapolated from dose response curves of the data using OriginLab Software.
(In general: Sulforhodamine B stains cellular protein and so reports cell mass.)

The test system of another data set is OMC3 Cell Line. The experiment in a line: SRB cytotoxicity assay, OMC3. Format: cell-based, human. The procedure: as §1, §2, §3, §4, §5
The subject of another data set is COV644 Cell Line. The experiment in a line: SRB cytotoxicity assay, COV644. The format is cell-based, human. Here is the method:
as §1, §2, §3, §4, §5
(§6) The 1050 values exceeded the solubility in medium for each compound—the limit of solubility in cell culture medium for the compounds were as follows: 2 micromolar for BNP1350 and SN38, and 20 micromolar for Topotecan. Cells were treated for periods of 2.5 hours or 6 hours and, in each case, the […] values were not reached. Longer treatments were not performed.

Data set [1] in a line: Limit of solubility in cell culture medium. Format: physicochemical. The procedure: as §6
Data set [2] deals with stage III/IV advanced epithelial ovarian cancer resistant or refractory to platinum- and taxane-based regimens. The procedure: Such Phase III clinical trial is sometimes referred to herein as the “Karenitecin Phase III Trial”.
The Primary Endpoint of the disclosed Karenitecin Phase III Trial was Progression Free Survival (“PFS”); which was defined as the time period from the date of randomization to the date of first radiographically-documented Progressive Disease (“PD”) or date of death due to any cause, taking the event date that occurs first. The date of PD was determined by radiographical objective disease (RECIST) measurement. The Secondary Endpoints of the disclosed Karenitecin Phase III Trial included: (i) Overall Survival (hereinafter “OS”), defined as the time from the date of randomization to the date of death due to any cause; (ii) Incidence of anemia, defined as the proportion of subjects who experience ≧grade 3 anemia based on National Cancer Institute Common Terminology Criteria for Adverse Events (NCI-CTCAE) criteria at any time post-baseline after receiving study treatment; (iii) Incidence of neutropenia (including febrile neutropenia), defined as the proportion of subjects who experience ≧grade 3 neutropenia based on NCI-CTCAE criteria at any time post-baseline after receiving study treatment; and (iv) Incidence of thrombocytopenia, defined as the proportion of subjects who experience ≧grade 3 thrombocytopenia based on NCI-CTCAE criteria at any time post-baseline after receiving study treatment.
Approximately 80 study centers participated in this clinical study. The primary endpoint was Progression Free Survival (PFS); defined as the time period from the date of randomization to the date of first radiographically documented progressive disease or disease progression (“PD”) or date of death due to any cause, taking the event date that occurs first.
The primary endpoint was Progression Free Survival (PFS); defined as the time period from the date of randomization to the date of first radiographically documented progressive disease (PD) or date of death due to any cause, taking the event date that occurs first. The date of PD was determined by radiographically objective disease (RECIST) measurement.
• Overall Survival (OS), defined as the time from the date of randomization to the date of death due to any cause. • Incidence of anemia, defined as the proportion of subjects who experience ≧grade 3 anemia based on National Cancer Institute Common Terminology Criteria for Adverse Events (NCI-CTCAE) criteria at any time post-baseline after receiving study treatment. • Incidence of neutropenia (including febrile neutropenia), defined as the proportion of subjects who experience ≧grade 3 neutropenia based on NCI-CTCAE criteria at any time post-baseline after receiving study treatment. • Incidence of thrombocytopenia, defined as the proportion of subjects who experience ≧grade 3 thrombocytopenia based on NCI-CTCAE criteria at any time post-baseline after receiving study treatment.
During this period, subjects received either Karenitecin (1.0 mg/m^2/day administered as a 60-minute intravenous infusion) or Topotecan (1.5 mg/m^2/day administered as a 30-minute intravenous infusion) daily for 5 consecutive days, every 21 days (one treatment cycle=21 days).

For data set [3] the following is noted: human, in vivo; cited from earlier work.
The test system of data set [4] is platinum-refractory epithelial ovarian cancer. Conditions: cited from earlier work.
For data set [5], the system named is resistant subline containing less than 4% of the topoisomerase I activity. Conditions: subline with less than 4% of topoisomerase I activity; cited from earlier work.
Where [6] appears, read: Homo sapiens, 2 hour drug exposure, average of Test 1 and Test 2, read-out: IC50, Average.
The mark [7] stands for this setting: Homo sapiens, 2 hour drug exposure, read-out: IC50, Test 1 (2 replicate plates).
[8] abbreviates: Homo sapiens, 2 hour drug exposure, read-out: IC50, Test 2 (3 replicate plates).
The mark [9] stands for this setting: Homo sapiens, read-out: IC50 values.
[10] abbreviates: Mucinous adenocarcinoma subtype.
Where [11] appears, read: 2 hour drug exposure, read-out: IC50, Test 1 (2 replicate plates).
The mark [12] stands for this setting: 2 hour drug exposure, read-out: IC50, Test 2 (3 replicate plates).

What is called IC50 is the concentration at which inhibition is half-maximal. Broadly, the solubility is the concentration that dissolves in the medium under given conditions. Low values mean a poorly soluble substance, high ones a readily soluble substance.

Consider `COc1cc([C@@H]2c3cc4c(cc3[C@@H](O[C@@H]3O[C@@H]5CO[C@@H](C)O[C@H]5[C@H](O)[C@H]3O)[C@H]3COC(=O)[C@H]23)OCO4)cc(OC)c1O` [etoposide], for which the “Change in sensitivity typically described for classic MDR substrates” value in the data set on MDR-expressing sublines is on record as 200 fold.
As for `CC[C@@]1(O)C(=O)OCc2c1cc1n(c2=O)Cc2cc3c(N)cccc3nc2-1` [9-aminocamptothecin, 9-amino-camptothecin], the “Resistance of MDR-expressing sublines relative to parental wild-type cells” value with MDR-expressing sublines is reported as “two-fold more resistant”.
In the case of `CC[C@@]1(O)C(=O)OCc2c1cc1n(c2=O)Cc2cc3c(CN(C)C)c(O)ccc3nc2-1` [Topotecan], the IC50 with JHOM2B Cell Line (setting [6]) is 5.17 µM; with JHOM2B Cell Line (setting [7]) it was 4.75 ± 0.25 µM; with JHOM2B Cell Line (setting [8]), 5.59 ± 0.28 µM; in the data set with JHOM2B Cell Line (setting [9]) it was 5.17 µM; with OMC3 Cell Line (setting [6]) it was 3.94 µM; in the data set with OMC3 Cell Line (setting [7]) it was 3.12 ± 0.18 µM. In addition, the IC50 was 4.76 ± 0.25 µM with OMC3 Cell Line (setting [8]); 3.94 µM in the data set with OMC3 Cell Line (setting [9]); more than 20 µM in the data set with COV644 Cell Line (Homo sapiens, 2, 5, and 6 hour drug exposures, did not reach 50% of Control, read-out: IC50, Test 1 (2 replicate plates)); more than 20 µM with COV644 Cell Line (Homo sapiens, 2, 5, and 6 hour drug exposures, did not reach 50% of Control, read-out: IC50, Test 2 (2 to 3 replicate plates)); more than 20 µM in the data set on COV644 Cell Line (Homo sapiens, 2, 5, and 6 hour drug exposures, read-out: IC50, Average); more than 20 µM in the data set with COV644 Cell Line (setting [9]). Besides, the concentration in solution in [1] (aqueous buffer) (solubility) was 20 µM (≈ 8.43 µg/mL). The “Median PFS” value in data set [2] (setting [10]) came to 9.1 weeks; in data set [2] (overall trial population, IRC-determined) it was 17.8 weeks; in [2] (refractory or resistant and/or mucinous subpopulation), 18.7 weeks. Also, in data set [2] (setting [10]), the “Overall survival (OS), third quartile” value came out at 19.4 months. For the same compound, the “Resistance of MDR-expressing sublines relative to parental wild-type cells” value in the data set with MDR-expressing sublines was “nine-fold more resistant”.
Turning to `Nc1ccn([C@@H]2O[C@H](CO)[C@@H](O)C2(F)F)c(=O)n1` [Gemcitabine], in [3], the Subjects with neutropenia entry was “up to 90%”.
For `N.N.O=C([O-])C1(C(=O)[O-])CCC1.[Pt+2]` [carboplatin], the Stable disease in data set [4] (6 subjects) is on record as 18%. Besides, the “Response rate, subgroup with platinum-free interval of 12 months” value in data set [4] (26 subjects (7/26)) is on record as 27%. Further, the “Overall response rate to platinum reinduction” value in [4] (33 subjects, single-agent carboplatin after taxane failure) is given as 21%. Also, in data set [4] (in vivo), the “Median duration of response” value was not below 7 months.
For the compound `CC[C@@]1(O)C(=O)OCc2c1cc1n(c2=O)Cc2cc3ccccc3nc2-1` [camptothecin], the “Resistance of MDR-expressing sublines relative to parental wild-type cells” value in the data set on MDR-expressing sublines is on record as “No increase in resistance”. Further, the “Decrease in sensitivity of resistant subline compared with wild-type parental cells” value in data set [5] is 1000 fold.
As to `CC[C@@]1(O)C(=O)OCc2c1cc1n(c2=O)Cc2cc3cc4c(cc3nc2-1)OCO4` [10,11-methylenedioxycamptothecin], the “Resistance of MDR-expressing sublines relative to parental wild-type cells” value with MDR-expressing sublines is “No increase in resistance”.
Regarding `CCc1c2c(nc3ccc(O)cc13)-c1cc3c(c(=O)n1C2)COC(=O)[C@]3(O)CC` [SN38], the IC50 in the data set with JHOM2B Cell Line (2 hour drug exposure, average of Test 1 and Test 2, read-out: IC50, Average) amounted to 0.666 µM; in the data set with JHOM2B Cell Line (setting [11]), 0.61 ± 0.13 µM; with JHOM2B Cell Line (setting [12]), 0.723 ± 0.028 µM; in the data set with JHOM2B Cell Line (read-out: IC50 values), 0.667 µM; with OMC3 Cell Line (setting [11]) it was 0.55 ± 0.06 µM; in the data set on OMC3 Cell Line (setting [12]), 0.58 ± 0.127 µM. Also, the half-maximal inhibitory concentration (IC50) is 0.565 µM in the data set on OMC3 Cell Line (read-out: IC50 values); more than 2 µM with COV644 Cell Line (2, 5, and 6 hour drug exposures, did not reach 50% of Control, read-out: IC50, Test 1 (2 replicate plates)); more than 2 µM in the data set with COV644 Cell Line (2, 5, and 6 hour drug exposures, did not reach 50% of Control, read-out: IC50, Test 2 (2 to 3 replicate plates)); more than 2 µM with COV644 Cell Line (2, 5, and 6 hour drug exposures, read-out: IC50, Average). Besides, the “Limit of solubility in cell culture medium” value in data set [1] is 2 µM.
For the compound `COc1cccc2c1C(=O)c1c(O)c3c(c(O)c1C2=O)C[C@@](O)(C(=O)CO)C[C@@H]3O[C@H]1C[C@H](N)[C@H](O)[C@H](C)O1` [doxorubicin], the “Change in sensitivity typically described for classic MDR substrates” value in the data set on MDR-expressing sublines is 200 fold.
